Data: patent US10208033B2, “β-carboline, dihydro-β-carboline and tetrahydro-β-carboline alkaloid derivatives and preparation methods same and use in aspects of preventing and treating plant viruses, fungicides and insecticides” (NANKAI UNIVERSITY, priority 2013, dated 2019)

Assays:
[1] = tested on: Phytophthora capsici; assay: Fungicidal (bactericidal) activity in vitro, PDA colony diameter; assay type: cell-based; conditions: 50 mg/kg
[2] = tested on: cucumber fusarium wilt; assay: as above; assay type: cell-based; conditions: 50 mg/kg
[3] = tested on: Rhizoctonia solani; assay: as above; assay type: cell-based; conditions: 50 mg/kg
[4] = tested on: tobacco mosaic virus (TMV); assay: Anti-TMV in vivo therapeutic effect; parameters: species or system tobacco mosaic virus (host Nicotiana tabacum L.cv.Xanthi NN)
[5] = tested on: tobacco mosaic virus (TMV); assay: Anti-TMV in vivo inactivation; parameters: species or system tobacco mosaic virus (host Nicotiana tabacum L.cv.Xanthi NN)
[6] = tested on: tobacco mosaic virus (TMV); assay: Anti-TMV in vivo protective effect; parameters: species or system tobacco mosaic virus (host Nicotiana tabacum L.cv.Xanthi NN)
[7] = tested on: tobacco mosaic virus (TMV); assay: Anti-TMV in vitro effect (half-leaf soaking); assay type: cell-based, tobacco mosaic virus (host Nicotiana tabacum L.cv.Xanthi NN)
[8] = tested on: Fusarium graminearumt; assay: microbe, parasite or virus in culture; assay type: cell-based; conditions: 50 mg/kg
[9] = tested on: mosquito larvae; assay: whole plant or invertebrate; conditions: 24 h
Procedure, shortened: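 Compound dissolved in acetone (or other solvent) to a 1000 ppm stock and diluted in water to 5 ppm. Ten Culex pipiens pallens larvae at the start of the fourth instar, laboratory-reared, added per beaker; solvent-only aqueous control.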

[10] = tested on: cotton bollworms; assay: whole plant or invertebrate; conditions: concentration 600 mg/kg
Description: Experimental method of cotton bollworms: feed and drug mixing method: measure 3 mL of prepared solution and add it to about 27 g of newly prepared feed, thereby obtaining needed concentration through dilution by 10 times.

[11] = tested on: Alternaria solani; assay: Fungicidal (bactericidal) activity in vitro, PDA colony diameter; assay type: cell-based; conditions: 50 mg/kg
[12] = tested on: Macrophoma kawatsukai; assay: as above; assay type: cell-based; conditions: 50 mg/kg
[13] = tested on: Colletotrichum orbiculare; assay: as above; assay type: cell-based; conditions: 50 mg/kg
[14] = tested on: Cercospora arachidicola; assay: as above; assay type: cell-based; conditions: 50 mg/kg
[15] = tested on: Bipolaria maydis; assay: organism not typed; assay type: cell-based; conditions: 50 mg/kg
[16] = tested on: armyworms; assay type: in vivo; conditions: concentration 600 mg/kg
[17] = tested on: Rhizoctonia cereali; assay: Fungicidal (bactericidal) activity in vitro, PDA colony diameter; assay type: cell-based; conditions: 50 mg/kg
[18] = tested on: corn borers; conditions: concentration 600 mg/kg
[19] = tested on: potato late blight; assay: microbe, parasite or virus in culture; assay type: cell-based
[20] = tested on: Sclerotinia scleotiorum; assay: Fungicidal (bactericidal) activity in vitro, PDA colony diameter; assay type: cell-based; conditions: 50 mg/kg
[21] = tested on: Fusarium fujikuroi; assay: as above; assay type: cell-based; conditions: 50 mg/kg
[22] = tested on: Botrytis cinerea; assay: as above; assay type: cell-based; conditions: 50 mg/kg

Compound	Bactericidal activity (%) Phytophthora capsici [1]	Bactericidal activity (%) Cucumber fusarium wilt [2]	Bactericidal activity (%) Rhizoctonia solani [3]	Relative inhibition rate (%) In vivo therapy ([4]; treatment dose 100 μg/mL)	Relative inhibition rate (%) In vivo therapy ([4]; treatment dose 500 μg/mL)	Relative inhibition rate (%) In vivo inactivation ([5]; treatment dose 100 μg/mL)	Relative inhibition rate (%) In vivo inactivation ([5]; treatment dose 500 μg/mL)	Relative inhibition rate (%) In vivo protection ([6]; treatment dose 100 μg/mL)	Relative inhibition rate (%) In vitro activity ([7]; treatment dose 100 μg/mL)	Relative inhibition rate (%) In vitro activity ([7]; treatment dose 500 μg/mL)	Bactericidal activity (%) Fusarium graminearumt [8]	Mosquito larvae Mortality (%) ([9]; concentration 10 mg/kg)	Cotton bollworm Mortality (%) [10]	Bactericidal activity (%) Alternaria solani [11]	Bactericidal activity (%) Macrophoma kawatsukai [12]	Bactericidal activity (%) Colletotrichum orbiculare [13]	Bactericidal activity (%) Cercospora arachidicola [14]	Bactericidal activity (%) Bipolaria maydis [15]	Armyworm Mortality (%) [16]	Bactericidal activity (%) Rhizoctonia cereali [17]	other results
C[C@@H]1N[C@H](C(=O)NN=CC2CCCCC2)Cc2c1[nH]c1ccccc21 [Ic-25, (1S, 3S)—N′-(cyclohexylmethylene)-1-methyl-2,3,4,9-tetrahydropyridino [3,4-b] indol-3-formylhydrazine]	9.1%	4.5%	5.6%	30.4%	62.8%	36.3%	75.8%	25.7%	31.2%	59.6%	30.8%	100%	20%	19.0%	33.3%	24.0%	0.0%	36.0%	45%	29.7%	Relative inhibition rate (%) In vivo protection ([6]; treatment dose 500 μg/mL): 69.2%; Mosquito larvae Mortality (%) ([9]; concentration 5 mg/kg): 10%; Corn borer Mortality (%) [18]: 55%; Bactericidal activity (%) potato late blight [19]: 17.4%; Bactericidal activity (%) Sclerotinia scleotiorum [20]: 21.2%; Bactericidal activity (%) Fusarium fujikuroi [21]: 41.2%; Bactericidal activity (%) Botrytis cinerea [22]: 66.7%
C[C@@H]1N[C@H](C(=O)NN=CC(C)(C)C)Cc2c1[nH]c1ccccc21 [Ic-26, (1S, 3S)—N′-(2,2-dimethylpropylidene)-1-methyl-2,3,4,9-tetrahydropyridino [3,4-b] indol-3-formylhydrazine]	12.1%	4.5%	8.3%	36.8%	68.2%	28.9%	63.7%	33.4%	27.5%	64.4%	46.2%	55%	20%	19.0%	36.4%	24.0%	18.2%	20.0%	25%	48.6%	Relative inhibition rate (%) In vivo protection ([6]; treatment dose 500 μg/mL): 66.8%; Corn borer Mortality (%) [18]: 30%; Bactericidal activity (%) potato late blight [19]: 17.4%; Bactericidal activity (%) Sclerotinia scleotiorum [20]: 15.4%; Bactericidal activity (%) Fusarium fujikuroi [21]: 29.4%; Bactericidal activity (%) Botrytis cinerea [22]: 36.1%
CC(=NNC(=O)[C@@H]1Cc2c([nH]c3ccccc23)[C@H](C)N1)c1ccccc1 [Ic-27, (1S, 3S)—N′-(1-phenylethylidene)-1-methyl-2,3,4,9-tetrahydropyridino [3,4-b] indol-3-formylhydrazine]	36.4%	0.0%	15.3%	11.1%	34.8%	13.6%	39.5%	7.9%	9.2%	30.2%	61.5%	40%	30%	33.3%	39.4%	52.0%	36.4%	36.0%	20%	51.4%	Relative inhibition rate (%) In vivo protection ([6]; treatment dose 500 μg/mL): 37.2%; Corn borer Mortality (%) [18]: 30%; Bactericidal activity (%) potato late blight [19]: 26.1%; Bactericidal activity (%) Sclerotinia scleotiorum [20]: 11.5%; Bactericidal activity (%) Fusarium fujikuroi [21]: 29.4%; Bactericidal activity (%) Botrytis cinerea [22]: 69.4%
C[C@@H]1N[C@H](C(=O)NN=C2CCCCC2)Cc2c1[nH]c1ccccc21 [Ic-29, (1S, 3S)—N′-cyclohexylidene-1-methyl-2,3,4,9-tetrahydropyridino [3,4-b] indol-3-formylhydrazine]	12.1%	0.0%	15.3%	10.9%	41.9%	12.8%	33%	14.3%	8.6%	43.4%	46.2%	45%	25%	19.0%	9.1%	32.0%	18.2%	32.0%	20%	48.6%	Relative inhibition rate (%) In vivo protection ([6]; in vivo): 46.2%; Corn borer Mortality (%) [18]: 15%; Bactericidal activity (%) potato late blight [19]: 26.1%; Bactericidal activity (%) Sclerotinia scleotiorum [20]: 7.7%; Bactericidal activity (%) Fusarium fujikuroi [21]: 29.4%; Bactericidal activity (%) Botrytis cinerea [22]: 52.8%
Cc1nnsc1C(=O)NNC(=O)[C@@H]1Cc2c([nH]c3ccccc23)[C@H](C)N1 [Id-2, 4-methyl-N′-((1S, 3S)-1-methyl-2,3,4,9-tetrahydropyridino [3,4-b]indol-3-triformyl)-1,2,3-thiadiazole-5-formylhydrazine]	6.1%	4.5%	0.0%	19.1%	48.8%	9.8%	42.9%	16%	13.5%	41.2%	53.8%	80%	40%	14.3%	39.4%	24.0%	18.2%	28.0%	40%	45.9%	Relative inhibition rate (%) In vivo protection ([6]; treatment dose 500 μg/mL): 51.3%; Corn borer Mortality (%) [18]: 40%; Bactericidal activity (%) potato late blight [19]: 30.4%; Bactericidal activity (%) Sclerotinia scleotiorum [20]: 19.2%; Bactericidal activity (%) Fusarium fujikuroi [21]: 29.4%; Bactericidal activity (%) Botrytis cinerea [22]: 61.1%
